From patent publication US20020090380A1, “Novel formulation comprising thymol useful in the treatment of drug resistant bacterial infections” (priority 2000, published 2002)
Read-outs that look alike come from different tables or passages of the source.

Tests used:
[1] = test system: lomefloxacin resistant cells of E. coli; assay type: cell-based, Escherichia coli
[2] = test system: Lom^R mutants of Mycobacterium smegmatis; assay type: cell-based
Nal^R mutants of E. coli = assay type: cell-based, Escherichia coli; details: 5 μg/ml
E. coli CA 8000 (WT) = assay type: cell-based, Escherichia coli
[3] = test system: Mycobacterium smegmetis wild type; assay type: cell-based

Structure (SMILES)	Growth in poison agar medium (Nal^R mutants of E. coli; CAN 101)	Growth in poison agar medium (Nal^R mutants of E. coli; CAN 102)	Growth in poison agar medium (Nal^R mutants of E. coli; CAN 103)	Growth in poison agar medium (Nal^R mutants of E. coli; CAN 104)	Growth in poison agar medium (Nal^R mutants of E. coli; CAN 105)	Growth in poison agar medium (Nal^R mutants of E. coli; CAN 106)	Growth in poison agar medium (Nal^R mutants of E. coli; CAN 107)	Growth in poison agar medium (Nal^R mutants of E. coli; CAN 108)	Growth in poison agar medium (Nal^R mutants of E. coli; CAN 109)	Growth in poison agar medium (Nal^R mutants of E. coli; CAN 110)	Growth in poison agar medium (Nal^R mutants of E. coli; CAN 111)	Growth in poison agar medium (Nal^R mutants of E. coli; CAN 112)	Growth in poison agar medium (Nal^R mutants of E. coli; CAN 113)	Growth in poison agar medium (Nal^R mutants of E. coli; CAN 114)	Growth in poison agar medium (Nal^R mutants of E. coli; CAN 115)	Growth in poison agar medium (Nal^R mutants of E. coli; CAN 116)	Growth in poison agar medium (Nal^R mutants of E. coli; CAN 117)	Growth in poison agar medium (Nal^R mutants of E. coli; CAN 118)	Growth in poison agar medium (Nal^R mutants of E. coli; CAN 119)	Growth in poison agar medium (Nal^R mutants of E. coli; CAN 120)	further results
O=C(O)c1cn(C2CC2)c2cc(N3CCNCC3)c(F)cc2c1=O [Ciprofloxacin, ciprofloxacin]	−	−	−	−	−	−	−	−	−	−	−	−	−	−	−	−	−	−	−	−	Growth in poison agar medium ([1]; CAL 101, 2 μg/ml): +; Growth in poison agar medium ([1]; CAL 102, 2 μg/ml): +; Growth in poison agar medium ([1]; CAL 103, 2 μg/ml): +; Growth in poison agar medium ([1]; CAL 104, 2 μg/ml): +; Growth in poison agar medium ([1]; CAL 105, 2 μg/ml): +; Growth in poison agar medium ([1]; CAL 106, 2 μg/ml): +; Growth in poison agar medium ([1]; CAL 107, 2 μg/ml): +; Growth in poison agar medium ([1]; CAL 108, 2 μg/ml): +; resistance of the mutants ([2]; Lom^R mutants): resistant; Growth in poison agar medium (Nal^R mutants of E. coli; CAN 121): −; Growth in poison agar medium (Nal^R mutants of E. coli; CAN 122): −; Growth in poison agar medium (Nal^R mutants of E. coli; CAN 123): −; Growth in poison agar medium (Nal^R mutants of E. coli; CAN 124): −; Growth in poison agar medium (Nal^R mutants of E. coli; CAN 125): −; Growth in poison agar medium (Nal^R mutants of E. coli; CAN 126): −; Growth in poison agar medium (E. coli CA 8000 (WT)): −
CCn1cc(C(=O)O)c(=O)c2cc(F)c(N3CCNC(C)C3)c(F)c21 (stereo not shown) [Lomefloxacin, lomefloxacin]	−	−	−	−	−	−	−	−	−	−	−	−	−	−	−	−	−	−	−	−	Growth in poison agar medium ([1]; CAL 101, 1.5 μg/ml): +; Growth in poison agar medium ([1]; CAL 102, 1.5 μg/ml): +; Growth in poison agar medium ([1]; CAL 103, 1.5 μg/ml): +; Growth in poison agar medium ([1]; CAL 104, 1.5 μg/ml): +; Growth in poison agar medium ([1]; CAL 105, 1.5 μg/ml): +; Growth in poison agar medium ([1]; CAL 106, 1.5 μg/ml): +; Growth in poison agar medium ([1]; CAL 107, 1.5 μg/ml): +; Growth in poison agar medium ([1]; CAL 108, 1.5 μg/ml): +; concentration upto which the mutants were resistant ([2]; Lom^R mutants isolated in medium with 20 μg/ml lomefloxacin): ≤ 60 µg/mL; Growth in poison agar medium (Nal^R mutants of E. coli; CAN 121): −; Growth in poison agar medium (Nal^R mutants of E. coli; CAN 122): −; Growth in poison agar medium (Nal^R mutants of E. coli; CAN 123): −; Growth in poison agar medium (Nal^R mutants of E. coli; CAN 124): −; Growth in poison agar medium (Nal^R mutants of E. coli; CAN 125): −; Growth in poison agar medium (Nal^R mutants of E. coli; CAN 126): −; Growth in poison agar medium (E. coli CA 8000 (WT)): −
CC[n+]1c(-c2ccccc2)c2cc(N)ccc2c2ccc(N)cc21 [ethidium bromide]																					concentration at which the strain is killed [3]: 3 µg/mL
